Common to all, as to parameters: species or system SD rats
One assay concerns the target T1, serotonin S2 receptor (Rattus norvegicus, UniProt P14842).
T1 construct: The receptor fraction prepared from the cortex was molten and suspended; from tissue; host or cells: cerebral cortex of SD rats (membrane fraction)
In words: serotonin S2 receptor binding test ([3H] Ketanserin Binding Test). As to conditions: 1 nM [3H] Ketanserin, rat cortex, 37° C., 15 minutes. The procedure: (§1) The compounds of the present invention were subjected to each of serotonin S2 receptor binding test, dopamine D2 receptor binding test and adrenergic α1 receptor binding test.
(§2) The following reagents were used in this test.
(§3) These reagents and samples were each dissolved in 10% ethanol before use. Among them, water-insoluble compounds were each dissolved in ethanol and the obtained solution was diluted with distilled water to an ethanol concentration of 10%. Further, Methylsergide maleate was used in a state dissolved in distilled water.
(§4) SD rats aged 6 to 8 weeks were used.
(§5) SD rats were each slaughtered with a guillotine to extirpate its cerebrum. The cortex and corpus striatum were separated from the cerebrum. The former was used in serotonin S2 receptor binding test and adrenergic α1, receptor binding test, while the latter was used in dopamine D2 receptor binding test.
(§6) The cortex was homogenized in a 0.32 M sucrose solution in an amount ten times the wet weight of the cortex by the use of a teflon glass homogenizer and the resulting mixture was centrifuged at 10,000×G for 20 minutes. The obtained sediment was suspended in 50 mM Tris hydrochloride (pH 7.4) in an amount ten times the initial wet weight of the cortex by the use of a histocothrom, and the obtained suspension was centrifuged at 10,000×G for 20 minutes. This operation was repeated twice. The obtained sediment was suspended in 50 mM Tris hydrochloride (pH 7.4) in an amount 20 times the initial wet weight of the cortex by the use of a histocothrom. The suspension thus prepared was used as a receptor fraction. This receptor fraction was stored at -80° C. until use.
4. [^3 ] Ketanserin Binding Test
The receptor fraction prepared from the cortex was molten and suspended by the use of a histocothrom. The resulting suspension was incubated together with 1 nM-[^3 H] Ketanserin at 37° C. for 15 minutes. The resulting reaction system was filtered through a Whatman GF/B glass filter with an MR-30R type cell harvester mfd. by Blandel. The resulting filter was washed twice with 5 ml of 50 mM Tris hydrochloride (ph 7.4) cooled with ice and the radioactivity of the Ketanserin bound the receptor was determined by the use of a liquid scintillation counter with 5 ml of ACS II. The binding detected in the presence of […] of Methylsergide was regarded as nonspecific binding.
(§7) Each IC50 value was calculated by the probit method and each Ki value was determined by the following formula: [formula]
(§8) In the above formula, C represents the concentration of radioligand, and Kd represents the affinity of radioligand for the receptor as determined by the Scatchard analysis.

A further assay has as its target T2, dopamine D2 receptor (Rattus norvegicus, UniProt P61169).
T2 construct: the receptor fraction prepared from the corpus striatum was molten and suspended; from tissue; host or cells: corpus striatum of SD rats (membrane fraction)
The experiment in a line: dopamine D2 receptor binding test ([3H] Spiperone Binding Test). The conditions noted are these: 1 nM [3H] Spiperone, rat corpus striatum, room temperature, 60 minutes. On the procedure:
as §1, §2, §3, §4, §5
On the other hand, the corpus striatum was homogenized in a 0.32 M sucrose solution in an amount ten times the wet weight of the corpus striatum by the use of a teflon glass homogenizer and the obtained mixture was centrifuged at 1,000×G for 20 minutes. The obtained supernatant was centrifuged at 10,000×G for 20 minutes. The obtained sediments were suspended together in 50 mM Tris hydrochloride (pH 7.4) in an amount ten times the initial wet weight of the corpus striatum by the use of a histocothrom, and the obtained suspension was centrifuged at 10,000×G for 20 minutes. This operation was repeated thrice. The resulting sediment was suspended in 50 mM Krebs-Tris (pH 7.4) in an amount 100 times the initial wet weight of the corpus striatum by the use of a histocothrom. The obtained suspension was used as a receptor fraction. This receptor fraction was stored at -80° C. until use.
as §7, §8
5. [^3 H] Spiperone Binding Test
This test was conducted in the same manner as that of the binding test of [^3 H] Ketanserin except that the receptor fraction prepared from the corpus striatum was molten and suspended with a histocothrom, and the obtained suspension was incubated together with 1 nM-[^3 H], Spiperone at room temperature for 60 minutes and that the binding detected in the presence of 10 μl of Spiperone was regarded as nonspecific binding.

In a further assay the target is adrenergic α1 receptor. The experiment in a line: adrenergic α1 receptor binding test ([3H] Prazosin Binding Test). As to conditions: 1 nM [3H] Prazosin, rat cortex, room temperature, 60 minutes. On the procedure: as §1, §2, §3, §4, §5, §6, §7, §8
6. [^3 H] Prazosin Binding Test
This test was conducted in the same manner as that of the binding test of [^3 H] Ketanserin except that the receptor fraction prepared from the cortex was molten and suspended with a histocothrom, and the obtained suspension was incubated together with 1 nM-[^3 H] Prazosin at room temperature for 60 minutes and that the binding detected in the presence of 10 μl of Phentolamine was regarded as nonspecific binding.

[1] abbreviates: read-out: Ki value, dopamine D2 receptor.

Among the data in patent US6281214A, “Biphenyl derivatives” (Eisai Co., Ltd, priority 1994, dated 2001) are Ki values, retold here.

Read-outs that look alike come from different tables or passages of the source.

T1 sequence (P14842 whole entry): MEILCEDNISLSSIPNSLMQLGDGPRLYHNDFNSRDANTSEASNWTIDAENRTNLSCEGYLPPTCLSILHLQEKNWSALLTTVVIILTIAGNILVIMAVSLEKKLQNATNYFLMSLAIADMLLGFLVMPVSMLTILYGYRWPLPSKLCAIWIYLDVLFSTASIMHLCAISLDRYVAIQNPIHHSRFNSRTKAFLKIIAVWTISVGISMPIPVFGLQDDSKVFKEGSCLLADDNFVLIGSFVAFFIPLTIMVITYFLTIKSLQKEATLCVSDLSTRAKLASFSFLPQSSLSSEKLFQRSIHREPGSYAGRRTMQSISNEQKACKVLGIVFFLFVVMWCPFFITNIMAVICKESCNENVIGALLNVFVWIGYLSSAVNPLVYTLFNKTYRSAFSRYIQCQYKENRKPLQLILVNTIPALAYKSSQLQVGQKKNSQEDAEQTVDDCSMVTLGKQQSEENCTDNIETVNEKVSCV
T2 sequence (P61169 whole entry): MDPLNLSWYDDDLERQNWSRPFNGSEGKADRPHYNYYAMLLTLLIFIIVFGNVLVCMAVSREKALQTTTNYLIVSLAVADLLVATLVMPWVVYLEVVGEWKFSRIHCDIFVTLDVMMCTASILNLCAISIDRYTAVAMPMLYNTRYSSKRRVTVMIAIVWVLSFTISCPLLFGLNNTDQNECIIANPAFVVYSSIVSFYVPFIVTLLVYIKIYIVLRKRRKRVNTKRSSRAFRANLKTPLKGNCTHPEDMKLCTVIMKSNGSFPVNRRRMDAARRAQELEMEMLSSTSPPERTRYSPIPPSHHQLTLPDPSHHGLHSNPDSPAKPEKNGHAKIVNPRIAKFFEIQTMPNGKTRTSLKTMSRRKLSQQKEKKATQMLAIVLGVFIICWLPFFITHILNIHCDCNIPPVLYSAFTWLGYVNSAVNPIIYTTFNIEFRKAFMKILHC

In the case of `CCN1CCN(c2cc(C(=O)OC)c(OC)c(-c3ccccc3)c2)CC1` [Example 74, 1-Ethyl-4-(3-phenyl-4-methoxy-5-methoxycarbonyl)phenylpiperazine], the Ki (usually the dissociation constant of the complex between target and ligand, obtained from inhibition or displacement) on serotonin S2 receptor is 374 nM; at dopamine D2 receptor (setting [1]) it was over 1000 nM; on adrenergic α1 receptor, over 1000 nM.

On serotonin S2 receptor, `CCS(=O)(=O)c1cc(N2CCN(CCF)CC2)cc(-c2ccc(F)cc2)c1OC` [Example 203, 1-(2-Fluoroethyl)-4-[3-(4-fluorophenyl)-4-methoxy-5-ethanesulfonyl]phenylpiperazine] came in with a Ki of 54.8 nM.

`COc1c(C(=O)Cc2ccccc2)cc(N2CCN(CCO)CC2)cc1-c1ccccc1` [Example 128, 1-(2-Hydroxyethyl)-4-(3-phenyl-4-methoxy-5-phenylacetyl)phenylpiperazine]: the Ki is 1.16 nM at serotonin S2 receptor, 46.1 nM on dopamine D2 receptor (setting [1]) and over 1000 nM at adrenergic α1 receptor.

As to `CCN1CCN(c2cc(N)c(OC)c(-c3ccccc3)c2)CC1` [Example 110, 1-Ethyl-4-(3-phenyl-4-methoxy-5-amino)phenylpiperazine], the Ki on serotonin S2 receptor, at dopamine D2 receptor (setting [1]) and on adrenergic α1 receptor was over 1000 nM each time.

With `CC[C@@H](F)c1cc(N2CCN(C)CC2)cc(-c2ccccc2C)c1Cl` [Example 220, 1-Methyl-4-{3-(2-tolyl)-4-chloro-5-[1-(R)-fluoropropyl]}phenylpiperazine], the Ki is 37.9 nM at serotonin S2 receptor, 1.25 nM on dopamine D2 receptor (setting [1]) and 1680 nM on adrenergic α1 receptor.

On to `CCN1CCN(c2cc(-c3ccccc3C)c(Cl)c(N3CCCC3)c2)CC1` [Example 177], for which the Ki was over 100 nM on serotonin S2 receptor, over 100 nM at dopamine D2 receptor (setting [1]) and over 1000 nM on adrenergic α1 receptor.

For the compound `CCN1CCN(c2cc(-c3ccccc3)c(OC)c(S(=O)(=O)CCCOc3ccc(F)cc3)c2)CC1` [Example 181, 1-Ethyl-4-{3-phenyl-4-methoxy-5-[3-(4-fluorophenoxy)propane]sulfonyl}phenylpiperazine], the figures for the inhibition constant (Ki) on serotonin S2 receptor, on dopamine D2 receptor (setting [1]) and on adrenergic α1 receptor were 0.5 nM, 26.2 nM and over 100 nM, respectively.

As to `C=CCOCc1cc(N2CCN(CC)CC2)cc(-c2ccccc2C)c1Cl` [Example 175, 1-Ethyl-4-[3-(2-tolyl)-4-chloro-5-allyloxymethyl]phenylpiperazine], the Ki at serotonin S2 receptor is over 100 nM; on dopamine D2 receptor (setting [1]), 29.3 nM; at adrenergic α1 receptor, over 1000 nM.

For the compound `CCCC(F)c1cc(N2CCN(CC)CC2)cc(-c2ccccc2)c1OC` (centres unmarked) [Example 47, 1-Ethyl-4-[3-phenyl-4-methoxy-5-(1-fluorobutyl)]phenylpiperazine], the Ki was 5.72 nM on serotonin S2 receptor, 12.9 nM on dopamine D2 receptor (setting [1]) and over 1000 nM at adrenergic α1 receptor.

Take `CCC(F)c1cc(N2CCN(CC)CC2)cc(-c2ccccc2)c1OC` (centres unmarked) [Example 88, 1-Ethyl-4-[3-phenyl-4-methoxy-5-(1-fluoropropyl)]phenylpiperazine]: the figures for the Ki at serotonin S2 receptor, on dopamine D2 receptor (setting [1]) and on adrenergic α1 receptor were 8.33 nM, 7.35 nM and 493 nM, respectively.

Regarding `CCCS(=O)(=O)c1cc(N2CCN(C)CC2)cc(-c2ccccc2Cl)c1Cl` [Example 180, 1-Methyl-4-[3-(2-chlorophenyl)-4-chloro-5-propanesulfonyl]phenylpiperazine], the figures for the Ki on serotonin S2 receptor, on dopamine D2 receptor (setting [1]) and on adrenergic α1 receptor were 3.48 nM, 13 nM and over 100 nM, respectively.

Take `CC[C@@H](F)c1cc(N2CCN(C)CC2)cc(-c2ccccc2CF)c1Cl` [Example 209]: the results for the Ki at serotonin S2 receptor and on dopamine D2 receptor (setting [1]) were 42.7 nM and 3.9 nM, respectively.

Take `CCc1ccccc1-c1cc(N2CCN(CC)CC2)cc(C(F)CC)c1Cl` (centres unmarked) [Example 217, 1-Ethyl-4-[3-(2-ethylphenyl)-4-chloro-5-(1-fluoropropyl)]phenylpiperazine]: the figures for the inhibitory constant (Ki) on serotonin S2 receptor and on dopamine D2 receptor (setting [1]) were 25.5 nM and 3.57 nM, respectively.

Take `CCc1ccccc1-c1cc(N2CCN(CCO)CC2)cc(C(F)CC)c1Cl` (centres unmarked) [Example 218, 1-(2-Hydroxyethyl)-4-[3-(2-ethylphenyl)-4-chloro-5-(1-fluoropropyl)]phenylpiperazine]: the Ki amounted to 30.1 nM on serotonin S2 receptor and 5.39 nM at dopamine D2 receptor (setting [1]).

Turning to `CC[C@@H](F)c1cc(N2CCN(CC)CC2)cc(-c2ccccc2C(F)(F)F)c1Cl` [Example 216, 1-Ethyl-4-{3-(2-trifluoromethylphenyl)-4-chloro-5-[1-(R)-fluoropropyl]}phenylpiperazine], the Ki was determined as 79 nM at serotonin S2 receptor and 11.3 nM on dopamine D2 receptor (setting [1]).

Take `CCC(Cl)c1cc(N2CCN(CC)CC2)cc(-c2ccccc2Cl)c1Cl` (centres unmarked) [Example 205, 1-Ethyl-4-[3-(2-chlorophenyl)-4-chloro-5-(1-chlorophenyl0phenylpiperazine)]phenylpiperazine]: the Ki was 51.2 nM on serotonin S2 receptor and 2.83 nM at dopamine D2 receptor (setting [1]).

For `CCC(F)c1cc(N2CCN(CCO)CC2)cc(-c2ccccc2Cl)c1Cl` (centres unmarked) [Example 23, 1-(2-Hydroxyethyl)-4-[3-(2-chlorophenyl)-4-chloro-5-(1-fluoropropyl)]phenylpiperazine], the Ki at serotonin S2 receptor was determined as 51.2 nM; on dopamine D2 receptor (setting [1]), 7.22 nM.

As for `CC[C@@H](F)c1cc(N2CCN(CCO)CC2)cc(-c2ccccc2C(F)(F)F)c1Cl` [Example 219, 1-(2-Hydroxyethyl)-4-{3-(2-trifluoromethylphenyl)-4-chloro-5-[1-(R)-fluoropropyl]}phenylpiperazine], the results for the Ki on serotonin S2 receptor and at dopamine D2 receptor (setting [1]) were 151 nM and 5.54 nM, respectively.

Regarding `CCC(F)c1cc(N2CCN(CC)CC2)cc(-c2c(C)cccc2C)c1Cl` (centres unmarked) [Example 215, 1-Ethyl-4-[3-(2,6-xylyl)-4-chloro-5-(1-fluoropropyl)]phenylpiperazine], the Ki on serotonin S2 receptor was found to be 15.3 nM; on dopamine D2 receptor (setting [1]) it was 2.28 nM.

Turning to `CC[C@H](F)c1cc(N2CCN(C)CC2)cc(-c2ccccc2CF)c1Cl` [Example 210, 1-Methyl-4-{3-(2-fluoromethylphenyl)-4-chloro-5-[1-(S)-fluoropropyl]}phenylpiperazine], the Ki is 6.25 nM on serotonin S2 receptor and 16.1 nM on dopamine D2 receptor (setting [1]).

Regarding `CC[C@@H](F)c1cc(N2CCN(CC)CC2)cc(-c2ccc(F)cc2C)c1Cl` [Example 212, 1-Ethyl-4-{3-[2-(4-fluorotolyl)]-4-chloro-5-[1-(R)-fluorophenyl]}phenylpiperazine], the Ki was 1020 nM at serotonin S2 receptor and 3.9 nM on dopamine D2 receptor (setting [1]).

`C/C=C/c1cc(N2CCN(CC)CC2)cc(-c2ccccc2Cl)c1Cl` [Example 204]: the Ki is 187 nM at serotonin S2 receptor and 14.4 nM at dopamine D2 receptor (setting [1]).

As to `CCS(=O)(=O)c1cc(N2CCN(Cc3ccccn3)CC2)cc(-c2ccc(F)cc2)c1OC` [Example 199, 1-(2-Pyridylmethyl)-4-[3-(4-fluorophenyl)-4-methoxy-5-ethanesulfonyl]phenylpiperazine], the values for the Ki on serotonin S2 receptor and on dopamine D2 receptor (setting [1]) were 63.2 nM and 51.5 nM, respectively.

In the case of `CCN1CCN(c2cc(NS(=O)(=O)c3ccccc3)c(OC)c(-c3ccccc3)c2)CC1` [Example 120], the Ki on serotonin S2 receptor worked out at 17.4 nM; at dopamine D2 receptor (setting [1]), 0.36 nM.

In the case of `CCS(=O)(=O)c1cc(N2CCNCC2)cc(-c2ccc(F)cc2)c1OC` [Example 202, 1-[3-(4-Fluorophenyl)-4-methoxy-5-ethanesulfonyl]phenylpiperazine], the Ki came to 6.33 nM on serotonin S2 receptor and 90.5 nM at dopamine D2 receptor (Ki value, dopamine D2 receptor).
